Experimental findings from patent publication US9493466B2, “Treatment of cancer with TOR kinase inhibitors” (Signal Pharmaceuticals, LLC, priority 2011, dated 2016) are described below.

Structures are written as SMILES.

The series relates to U87MG tumors. The series can be described thus: U87MG human glioblastoma xenograft model (Compound 1). The class given is in vivo, SCID mice. The settings on record: positive control, 4 mg/kg Q3D IP, 18 days. How it is done: U87MG Human Glioblastoma Xenograft Model (Compound 1). Efficacy Studies: Groups of female SCID mice bearing U87MG tumors (n=8-10/group) were dosed orally with vehicle or Compound 1 throughout the study, starting when tumor volumes reached approximately 200 mm^3. The twice daily (BID) dose groups were dosed with a 10-hour separation between morning and evening doses. In the positive control group, rapamycin was administered Q3D via intraperitoneal (IP) route. At the end of each study, plasma and/or tumor samples were collected.
Cell Line and Culture. U87MG cell line was obtained from American Tissue Culture Collection (ATCC) (Gaithersberg, Md.) and grown in growth medium containing MEM, 2 mM L-glutamine, 0.1 mM non-essential amino acids and 1 mM sodium pyruvate and 10% fetal bovine serum (FBS). The cells were detached from tissue culture flasks using trypsin-EDTA. After centrifugation, the cell pellets were suspended in phosphate buffered saline (PBS) and counted using a hemocytometer. The final volume was adjusted to 5×10^6 cells/0.1 mL of PBS.
Tumor Cell Inoculation. Mice were anesthetized with inhaled isoflurane and then inoculated with U87MG tumor cells subcutaneously on the right hind leg with 0.1 mL of a single cell suspension in PBS using a sterile 1 mL syringe fitted with a 26 gauge needle. Following inoculation, the mice were returned to microisolator cages
Randomization of Animals. Following inoculation, tumors were allowed to grow to about 200 mm^3 prior to randomization. The typical number of days required for tumors to reach 200 mm^3 was 14-15 days. The tumor of each animal was measured and animals with tumors ranging between 175-250 mm^3 were included in the study. Animals from the pool were then distributed randomly into various cages and the cages were randomly assigned to vehicle, positive control, or test article groups. All of the mice were tagged with metal ear tags on the right ear.
Test Article Preparation and Administration. Suspensions of Compound 1 were prepared in aqueous 0.5% CMC and 0.25% Tween-80. The formulations were homogenized using a Teflon™ pestle and mortar (Potter-Elvehjem tissue grinder). Between the doses, the formulated compound was stored under constant stirring using a magnetic stirrer at 4° C. in the dark. The test article and vehicle were administered by oral gavage. The positive control, rapamycin, was prepared as solution in 2% ethanol, 45% polyethyleneglycol 400, and 53% saline and administered by IP injection. Sterile syringes and gavage needles were used for compound administration. All of the procedures including injections were done in biosafety cabinets disinfected with 70% ethanol prior to use.
Tumor Measurements. Tumor volumes were determined prior to the initiation of treatment and were considered as the starting volumes. Thereafter, tumors were measured twice a week for the duration of the study. The long and short axes of each tumor were measured using a digital caliper in millimeters. Tumor volumes were calculated using the formula: width^2×length/2. The tumor volumes were expressed in cubic millimeters (mm^3).
Tumor Growth Delay (TGD) Calculations. Tumor growth delay is the difference in days for treated versus control tumors to reach a volume of 1000 mm^3. The TGD was calculated from the data plotted in a graph format.
Body Weight Measurements. Initial body weights were recorded prior to the initiation of treatment using a digital scale. The percent body weight change during the course of the study was calculated using initial body weight measurements. Body weights of each animal were measured twice a week at the same time as the tumor measurements. Body weights were measured more frequently if significant decreases were noted during the course of the study.
For orientation: In xenograft studies the graft and the host belong to different species.

Take `CO[C@H]1C[C@@H]2CC[C@@H](C)[C@@](O)(O2)C(=O)C(=O)N2CCCC[C@H]2C(=O)O[C@H]([C@H](C)C[C@@H]2CC[C@@H](O)[C@H](OC)C2)CC(=O)[C@H](C)/C=C(\C)[C@@H](O)[C@@H](OC)C(=O)[C@H](C)C[C@H](C)/C=C/C=C/C=C/1C` [rapamycin, reference compound]: the “change in body weight” value is listed as “No significant change”.
